Measured values taken from patent US10597388B2, “Pyridazinone herbicides” (FMC CORPORATION, priority 2014, dated 2020).

Experiments:
Assay in all cases: Test C greenhouse herbicide test, pre- and postemergence
Assay type in all cases: in vivo
[1] = system: soybean (Glycine max)
Outline: (§1)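 Seeds sown in loam–sand blend treated preemergence; plants in peat-based medium sprayed postemergence at 2–18 cm (1- to 4-leaf stage); chemicals in non-phytotoxic solvent with surfactant. Greenhouse 13–15 d, then visual rating versus controls on 0–100 scale (0 no effect, 100 complete control).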

[2] = system: blackgrass (Alopecurus myosuroides)
Outline: as §1

[3] = system: oilseed rape (Brassica napus)
Outline: as §1

[4] = system: velvetleaf (Abutilon theophrasti)
Outline: as §1

[5] = system: barnyardgrass (Echinochloa crus-galli)
Outline: as §1

[6] = system: pigweed (Amaranthus retroflexus)
Outline: as §1

[7] = system: wheat (winter wheat, Triticum aestivum)
Outline: as §1

[8] = system: lambsquarters (Chenopodium album)
Outline: as §1

[9] = system: crabgrass, large (large crabgrass, Digitaria sanguinalis)
Outline: as §1

[10] = system: waterhemp (common waterhemp, Amaranthus rudis)
Outline: as §1

[11] = system: morningglory (Ipomoea coccinea)
Outline: as §1

[12] = system: ragweed (common ragweed, Ambrosia elatior)
Outline: as §1

[13] = system: johnsongrass (Sorghum halepense)
Outline: as §1

[14] = system: nutsedge, yellow (yellow nutsedge, Cyperus esculentus)
Outline: as §1

[15] = system: galium (catchweed bedstraw, Galium aparine)
Outline: as §1

[16] = system: foxtail, giant (giant foxtail, Setaria faberii)
Outline: as §1

[17] = Postemergence, 125 g ai/ha, scale 0 to 100, 0 is no effect, 100 is complete control
[18] = Postemergence, 250 g ai/ha, scale 0 to 100, 0 no effect, 100 complete control, 13 to 15 d
[19] = Preemergence, 31 g ai/ha, scale 0 to 100, 0 is no effect, 100 is complete control
[20] = Preemergence, 62 g ai/ha, scale 0 to 100, 0 is no effect, 100 is complete control
[21] = Preemergence, 125 g ai/ha, scale 0 to 100, 0 is no effect, 100 is complete control
[22] = Preemergence, 250 g ai/ha, scale 0 to 100 (0 no effect, 100 complete control)
[23] = postemergence, 62 g ai/ha, scale 0 to 100, 0 no effect, 100 complete control
[24] = Postemergence, 31 g ai/ha, 0 to 100 scale (0 no effect, 100 complete control)

C#CCOC(=O)Oc1c(C)nn(C)c(=O)c1-c1c(C)sc2ccc(C)cc12 [Compound 87]
Plant response rating, Soybean [1, 17]: 10
Plant response rating, Soybean [1, 18]: 5
Plant response rating, Soybean [1, 19]: 0
Plant response rating, Soybean [1, 20]: 0
Plant response rating, Soybean [1, 21]: 100
Soybean plant response rating [1, 22]: 0
Soybean plant response rating [1, 23]: 0
Blackgrass plant response rating [2, 24]: 10
Plant response rating, Blackgrass [2, 17]: 60
Plant response rating, Blackgrass [2, 18]: 65
Plant response rating, Blackgrass [2, 19]: 40
Plant response rating, Blackgrass [2, 20]: 30
Plant response rating, Blackgrass [2, 21]: 85
Blackgrass plant response rating [2, 22]: 90
Blackgrass plant response rating [2, 23]: 35
Plant response rating, Oilseed Rape [3, 17]: 50
Plant response rating, Oilseed Rape [3, 18]: 20
Plant response rating, Oilseed Rape [3, 19]: 30
Plant response rating, Oilseed Rape [3, 20]: 30
Plant response rating, Oilseed Rape [3, 21]: 85
Oilseed Rape plant response rating [3, 22]: 80
Oilseed Rape plant response rating [3, 23]: 50
Plant response rating, Velvetleaf [4, 17]: 90
Plant response rating, Velvetleaf [4, 18]: 90
Plant response rating, Velvetleaf [4, 19]: 55
Plant response rating, Velvetleaf [4, 20]: 85
Plant response rating, Velvetleaf [4, 21]: 90
Velvetleaf plant response rating [4, 22]: 90
Velvetleaf plant response rating [4, 23]: 85
Barnyardgrass plant response rating [5, 24]: 25
Plant response rating, Barnyardgrass [5, 17]: 35
Plant response rating, Barnyardgrass [5, 18]: 45
Plant response rating, Barnyardgrass [5, 19]: 5
Plant response rating, Barnyardgrass [5, 20]: 35
Plant response rating, Barnyardgrass [5, 21]: 65
Barnyardgrass plant response rating [5, 22]: 85
Barnyardgrass plant response rating [5, 23]: 25
Plant response rating, Pigweed [6, 17]: 90
Plant response rating, Pigweed [6, 18]: 98
Plant response rating, Pigweed [6, 19]: 75
Plant response rating, Pigweed [6, 20]: 100
Plant response rating, Pigweed [6, 21]: 100
Pigweed plant response rating [6, 22]: 100
Pigweed plant response rating [6, 23]: 90
Plant response rating, Wheat [7, 17]: 0
Plant response rating, Wheat [7, 18]: 0
Plant response rating, Wheat [7, 19]: 0
Plant response rating, Wheat [7, 20]: 0
Plant response rating, Wheat [7, 21]: 0
Wheat plant response rating [7, 22]: 0
Wheat plant response rating [7, 23]: 0
Plant response rating, Lambsquarters [8, 17]: 98
Plant response rating, Lambsquarters [8, 18]: 100
Plant response rating, Lambsquarters [8, 19]: 55
Plant response rating, Lambsquarters [8, 20]: 80
Plant response rating, Lambsquarters [8, 21]: 85
Lambsquarters plant response rating [8, 22]: 100
Lambsquarters plant response rating [8, 23]: 98
Plant response rating, Crabgrass, Large [9, 17]: 25
Plant response rating, Crabgrass, Large [9, 18]: 35
Plant response rating, Crabgrass, Large [9, 19]: 10
Plant response rating, Crabgrass, Large [9, 20]: 65
Plant response rating, Crabgrass, Large [9, 21]: 80
Crabgrass, Large plant response rating [9, 22]: 85
Crabgrass, Large plant response rating [9, 23]: 10
Plant response rating, Waterhemp [10, 17]: 90
Plant response rating, Waterhemp [10, 18]: 90
Plant response rating, Waterhemp [10, 19]: 100
Plant response rating, Waterhemp [10, 20]: 100
Plant response rating, Waterhemp [10, 21]: 100
Waterhemp plant response rating [10, 22]: 100
Waterhemp plant response rating [10, 23]: 80
Plant response rating, Morningglory [11, 17]: 100
Plant response rating, Morningglory [11, 18]: 100
Plant response rating, Morningglory [11, 19]: 85
Plant response rating, Morningglory [11, 20]: 90
Plant response rating, Morningglory [11, 21]: 95
Morningglory plant response rating [11, 22]: 95
Morningglory plant response rating [11, 23]: 98
Plant response rating, Ragweed [12, 17]: 95
Plant response rating, Ragweed [12, 18]: 100
Plant response rating, Ragweed [12, 19]: 90
Plant response rating, Ragweed [12, 20]: 90
Plant response rating, Ragweed [12, 21]: 95
Ragweed plant response rating [12, 22]: 90
Ragweed plant response rating [12, 23]: 95
Plant response rating, Johnsongrass [13, 17]: 5
Plant response rating, Johnsongrass [13, 18]: 10
Plant response rating, Johnsongrass [13, 19]: 5
Plant response rating, Johnsongrass [13, 20]: 25
Plant response rating, Johnsongrass [13, 21]: 40
Johnsongrass plant response rating [13, 22]: 40
Johnsongrass plant response rating [13, 23]: 5
Plant response rating, Nutsedge, Yellow [14, 17]: 80
Plant response rating, Nutsedge, Yellow [14, 18]: 85
Plant response rating, Nutsedge, Yellow [14, 19]: 10
Plant response rating, Nutsedge, Yellow [14, 20]: 35
Plant response rating, Nutsedge, Yellow [14, 21]: 85
Nutsedge, Yellow plant response rating [14, 22]: 80
Nutsedge, Yellow plant response rating [14, 23]: 80
Plant response rating, Galium [15, 17]: 95
Plant response rating, Galium [15, 18]: 98
Plant response rating, Galium [15, 19]: 95
Plant response rating, Galium [15, 20]: 95
Plant response rating, Galium [15, 21]: 98
Galium plant response rating [15, 22]: 98
Galium plant response rating [15, 23]: 95
Plant response rating, Foxtail, Giant [16, 17]: 75
Plant response rating, Foxtail, Giant [16, 18]: 85
Plant response rating, Foxtail, Giant [16, 19]: 70
Plant response rating, Foxtail, Giant [16, 20]: 80
Plant response rating, Foxtail, Giant [16, 21]: 90
Foxtail, Giant plant response rating [16, 22]: 95
Foxtail, Giant plant response rating [16, 23]: 55
